Assay results published in US20130096105A1, “ArylSulfonamide Based Matrix Metalloprotease Inhibitors” (NOVARTIS AG, priority 2008, published 2013).

Experiments:
[1] = biological target: T1, Gelatinase (MMP-2) (Homo sapiens, UniProt P08253); experiment: Gelatinase (MMP-2) inhibitory activity, fluorogenic peptide substrate cleavage; format: biochemical; conditions: read-out: MMP02 IC50
T1 sequence (P08253 110-660): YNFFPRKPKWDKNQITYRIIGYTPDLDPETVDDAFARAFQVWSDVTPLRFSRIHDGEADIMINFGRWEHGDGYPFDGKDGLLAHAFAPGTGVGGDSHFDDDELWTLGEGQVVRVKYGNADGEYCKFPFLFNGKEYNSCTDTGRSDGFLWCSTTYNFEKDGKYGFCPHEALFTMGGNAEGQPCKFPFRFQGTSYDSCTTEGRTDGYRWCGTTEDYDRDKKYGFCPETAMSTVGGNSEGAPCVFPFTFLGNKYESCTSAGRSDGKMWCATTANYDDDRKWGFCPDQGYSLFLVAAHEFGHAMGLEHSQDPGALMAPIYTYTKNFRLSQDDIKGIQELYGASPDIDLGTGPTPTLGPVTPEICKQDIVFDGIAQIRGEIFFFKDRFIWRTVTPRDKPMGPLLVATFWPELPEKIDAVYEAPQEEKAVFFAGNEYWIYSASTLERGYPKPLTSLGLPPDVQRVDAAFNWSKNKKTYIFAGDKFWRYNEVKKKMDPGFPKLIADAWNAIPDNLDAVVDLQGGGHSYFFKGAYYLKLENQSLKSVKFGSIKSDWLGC
Summary of the method: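 Fluorogenic assay with MCA-Lys-Pro-Leu-Gly-Leu-Dpa-Ala-Arg-NH2 at 5 μM in Tris-Cl pH 7.5 buffer with ZnCl2, CaCl2, Brij-35 and 1.0% DMSO, 20-25 °C. Enzyme preincubated with inhibitor 60 min; fluorescence (ex 325/em 405 nm) read 60 min after substrate addition. IC50 relative to uninhibited control.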

[2] = biological target: Collagenase-3 (MMP-13) (Homo sapiens, UniProt P45452); experiment: Collagenase-3 (MMP-13) inhibitory activity, fluorogenic peptide substrate cleavage; format: biochemical; conditions: read-out: MMP13 IC50
Summary of the method: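 Recombinant pro-MMP-13 activated with 1 mM APMA; inhibitor preincubated 60 min, then 5 μM MCA-Lys-Pro-Leu-Gly-Leu-Dpa-Ala-Arg-NH2 added in Tris-Cl pH 7.5 buffer with Zn2+, Ca2+, Brij-35, 1.0% DMSO, 20-25 °C. Fluorescence (ex 325/em 405 nm) read after 60 min; IC50 versus uninhibited control.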

IC50 [1] [nM] | IC50 [2] [nM] | Structure (SMILES)
2900 | 4110 | CCN1C(=O)CCC2=C1Cc1cc(C(=O)c3ccc(Cl)c(S(N)(=O)=O)c3)ccc12 [Example 108, 2-Chloro-5-(1-ethyl-2-oxo-2,3,4,9-tetrahydro-1H-indeno[2,1-b]pyridine-7-carbonyl)-benzenesulfonamide]
21800 | 19900 | Cc1ccc(C)n1-c1ccc(C(=O)c2ccc(Cl)c(S(N)(=O)=O)c2)cc1F [Example 109, 2-Chloro-5-[4-(2,5-dimethyl-pyrrol-1-yl)-3-fluoro-benzoyl]-benzenesulfonamide]
8940 | 3080 | NS(=O)(=O)c1cc(C(=O)c2c[nH]c3ccccc23)ccc1Cl [Example 113, 2-Chloro-5-(1H-indole-3-carbonyl)-benzenesulfonamide]
3310 | 3130 | Cn1ccc2cc(C(=O)c3ccc(Cl)c(S(N)(=O)=O)c3)ccc21 [Example 114, 2-Chloro-5-(1-methyl-1H-indole-5-carbonyl)-benzenesulfonamide]
218 | 178 | NS(=O)(=O)c1cc(C(=O)c2ccc3cc[nH]c3c2)ccc1Cl [Example 115, 2-Chloro-5-(1H-indole-6-carbonyl)-benzenesulfonamide]
26700 | 23000 | CC(C)CCn1ccc2cc(C(=O)c3ccc(Cl)c(S(N)(=O)=O)c3)ccc21 [Example 117, 2-Chloro-5-[1-(3-methyl-butyl)-1H-indole-5-carbonyl]benzenesulfonamide]
2000 | 1030 | NS(=O)(=O)c1cc(C(=O)c2ccc3c(-c4ccccc4)c[nH]c3c2)ccc1Cl [Example 118, 2-Chloro-5-(3-phenyl-1H-indole-6-carbonyl)-benzenesulfonamide]
24000 | 6040 | COc1ccc(-c2c[nH]c3cc(C(=O)c4ccc(Cl)c(S(N)(=O)=O)c4)ccc23)cc1 [Example 119, 2-Chloro-5-[3-(4-methoxy-phenyl)-1H-indole-6-carbonyl]-benzenesulfonamide]
1900 | 950 | NS(=O)(=O)c1cc(C(=O)c2ccc3c(-c4ccc(F)cc4)c[nH]c3c2)ccc1Cl [Example 120, 2-Chloro-5-[3-(4-fluoro-phenyl)-1H-indole-6-carbonyl]-benzenesulfonamide]
3900 | 590 | CC(=O)c1cccc(-c2c[nH]c3cc(C(=O)c4ccc(Cl)c(S(N)(=O)=O)c4)ccc23)c1 [Example 121, 5-[3-(3-Acetyl-phenyl)-1H-indole-6-carbonyl]-2-chloro-benzenesulfonamide]
12500 | 1450 | CC(=O)c1ccc(-c2c[nH]c3cc(C(=O)c4ccc(Cl)c(S(N)(=O)=O)c4)ccc23)cc1 [Example 122, 5-[3-(4-Acetyl-phenyl)-1H-indole-6-carbonyl]-2-chloro-benzenesulfonamide]
5020 | 390 | CS(=O)(=O)c1cccc(-c2c[nH]c3cc(C(=O)c4ccc(Cl)c(S(N)(=O)=O)c4)ccc23)c1 [Example 123, 2-Chloro-5-[3-(3-methanesulfonyl-phenyl)-1H-indole-6-carbonyl]-benzenesulfonamide]
19700 | 540 | CS(=O)(=O)c1ccc(-c2c[nH]c3cc(C(=O)c4ccc(Cl)c(S(N)(=O)=O)c4)ccc23)cc1 [Example 124, 2-Chloro-5-[3-(4-methanesulfonyl-phenyl)-1H-indole-6-carbonyl]-benzenesulfonamide]
> 30000 | 1010 | CCS(=O)(=O)c1ccc(-c2c[nH]c3cc(C(=O)c4ccc(Cl)c(S(N)(=O)=O)c4)ccc23)cc1 [Example 125, 2-Chloro-5-[3-(4-ethanesulfonyl-phenyl)-1H-indole-6-carbonyl]-benzenesulfonamide]
22800 | 10000 | NS(=O)(=O)c1cc(C(=O)c2ccc3c(-c4ccc(-c5ccccc5)cc4)c[nH]c3c2)ccc1Cl [Example 126, 5-(3-Biphenyl-4-yl-1H-indole-6-carbonyl)-2-chloro-benzenesulfonamide]
2950 | 1650 | NS(=O)(=O)c1cc(C(=O)c2ccc3c(-c4ccc5[nH]ccc5c4)c[nH]c3c2)ccc1Cl [Example 129, 5-(1H,1′H-[3,5′]Biindolyl-6-carbonyl)-2-chloro-benzenesulfonamide]

IC50 [1] [nM] | IC50 [2] [nM] | Structure (SMILES)
2620 | 240 | NS(=O)(=O)c1cc(C(=O)c2ccc3c(-c4cccnc4)c[nH]c3c2)ccc1Cl [Example 130, 2-Chloro-5-(3-pyridin-3-yl-1H-indole-6-carbonyl)benzenesulfonamide]
4000 | 195 | NS(=O)(=O)c1cc(C(=O)c2ccc3c(-c4cncnc4)c[nH]c3c2)ccc1Cl [Example 131, 2-Chloro-5-(3-pyrimidin-5-yl-1H-indole-6-carbonyl)-benzenesulfonamide]
16000 | 730 | NS(=O)(=O)c1cc(C(=O)c2ccc3c(-c4ccc(C(=O)N5CCOCC5)cc4)c[nH]c3c2)ccc1Cl [Example 132, 2-Chloro-5-{3-[4-(morpholine-4-carbonyl)-phenyl]-1H-indole-6-carbonyl}-benzenesulfonamide]
23000 | 300 | Cc1noc(C)c1-c1c[nH]c2cc(C(=O)c3ccc(Cl)c(S(N)(=O)=O)c3)ccc12 [Example 133, 2-Chloro-5-[3-(3,5-dimethyl-isoxazol-4-yl)-1H-indole-6-carbonyl]-benzenesulfonamide]
23000 | 100 | COc1cc(-c2c[nH]c3cc(C(=O)c4ccc(Cl)c(S(N)(=O)=O)c4)ccc23)c(Cl)cn1 [Example 134, 2-Chloro-5-[3-(5-chloro-2-methoxy-pyridin-4-yl)-1H-indole-6-carbonyl]-benzenesulfonamide]
1050 | 90 | NS(=O)(=O)c1cc(C(=O)c2ccc3c(-c4ccncc4)c[nH]c3c2)ccc1Cl [Example 135, 2-Chloro-5-(3-pyridin-4-yl-1H-indole-6-carbonyl)-benzenesulfonamide]
18000 | 250 | NS(=O)(=O)c1cc(C(=O)c2ccc3c(-c4ccnc(Cl)c4)c[nH]c3c2)ccc1Cl [Example 136, 2-Chloro-5-[3-(2-chloro-pyridin-4-yl)-1H-indole-6-carbony]-benzenesulfonamide]
3450 | 41 | Cc1cc(-c2c[nH]c3cc(C(=O)c4ccc(Cl)c(S(N)(=O)=O)c4)ccc23)ccn1 [Example 137, 2-Chloro-5-[3-(2-methyl-pyridin-4-yl)-1H-indole-6-carbonyl]-benzenesulfonamide]
3550 | 60 | CCc1cc(-c2c[nH]c3cc(C(=O)c4ccc(Cl)c(S(N)(=O)=O)c4)ccc23)ccn1 [Example 138, 2-Chloro-5-[3-(2-ethyl-pyridin-4-yl)-1H-indole-6-carbonyl]-benzenesulfonamide]
4150 | 68 | NS(=O)(=O)c1cc(C(=O)c2ccc3c(-c4ccnc(C5CC5)c4)c[nH]c3c2)ccc1Cl [Example 139, 2-Chloro-5-[3-(2-cyclopropyl-pyridin-4-yl)-1H-indole-6-carbonyl]-benzenesulfonamide]
360 | 7 | COCCCc1cc(-c2c[nH]c3cc(C(=O)c4ccc(Cl)c(S(N)(=O)=O)c4)ccc23)ccn1 [Example 140, 2-Chloro-5-{3-[2-(3-methoxy-propyl)-pyridin-4-yl]-1H-indole-6-carbonyl}-benzenesulfonamide]
1100 | 20 | NS(=O)(=O)c1cc(C(=O)c2ccc3c(-c4ccnc(CCCN5CCOCC5)c4)c[nH]c3c2)ccc1Cl [Example 141, 2-Chloro-5-{3-[2-(3-morpholin-4-yl-propyl)-pyridin-4-yl]-1H-indole-6-carbonyl}-benzenesulfonamide]
200 | 17 | CN(C)CCOc1cc(-c2c[nH]c3cc(C(=O)c4ccc(Cl)c(S(N)(=O)=O)c4)ccc23)ccn1 [Example 142, 2-Chloro-5-{3-[2-(2-dimethylamino-ethoxy)-pyridin-4-yl]-1H-indole-6-carbonyl}-benzenesulfonamide]
2850 | 150 | NS(=O)(=O)c1cc(C(=O)c2ccc3c(-c4ccnc(OCCN5CCOCC5)c4)c[nH]c3c2)ccc1Cl [Example 143, 2-Chloro-5-{3-[2-(2-morpholin-4-yl-ethoxy)-pyridin-4-yl]-1H-indole-6-carbonyl}-benzenesulfonamide]
390 | 300 | NS(=O)(=O)c1cc(C(=O)c2ccc3cc[nH]c3c2)ccc1F [Example 144, 2-Fluoro-5-(1H-indole-6-carbonyl)-benzenesulfonamide]
200 | 100 | Cc1ccc(C(=O)c2ccc3cc[nH]c3c2)cc1S(N)(=O)=O [Example 145, 5-(1H-Indole-6-carbonyl)-2-methyl-benzenesulfonamide]
